Calls of active or inactive are those of the source. The rule behind the calls is not given here.
Tested on: CCRIS mutagenicity, Ames/micronucleus/aberration tests
Assay: CCRIS mutagenicity studies

O=[Se](=O)(O)O was tested, and the mutagenic call (Test System: AMES SALMONELLA TYPHIMURIUM, Strain/Indicator: TA1535, Metabolic Activation: NONE, Method: STANDARD PLATE) was “active; positive”, the mutagenic call (Test System: AMES SALMONELLA TYPHIMURIUM, Strain/Indicator: TA1535, Metabolic Activation: NONE, Method: STANDARD PLATE (MEDIUM WITH TRIMETAPHOSPHATE IONS)) was “active; positive” and the mutagenic call (Test System: UDS HUMAN FIBROBLASTS, Strain/Indicator: THY INCORP (NON-S-PHASE), Metabolic Activation: MOUSE, LIVER, S-9, Method: AUTORADIOGRAPHY) was “active; positive”. For the same compound, the mutagenic call (Test System: UDS HUMAN FIBROBLASTS, Strain/Indicator: THY INCORP (NON-S-PHASE), Metabolic Activation: NONE, Method: AUTORADIOGRAPHY) was “active; positive”.

In the case of O=[N+]([O-])c1ccc2ccc3ccccc3c2c1, the mutagenic call (Test System: AMES SALMONELLA TYPHIMURIUM, Strain/Indicator: TA98(1,8-DNP6), Metabolic Activation: NONE, Method: STANDARD PLATE) is reported as “active; positive”, the mutagenic call (Test System: AMES SALMONELLA TYPHIMURIUM, Strain/Indicator: TA98(NR), Metabolic Activation: NONE, Method: STANDARD PLATE) is reported as “active; positive” and the mutagenic call (Test System: AMES SALMONELLA TYPHIMURIUM, Strain/Indicator: TA98, Metabolic Activation: NONE, Method: STANDARD PLATE) is reported as “active; positive”. For the same compound, the mutagenic call (Test System: AMES SALMONELLA TYPHIMURIUM, Strain/Indicator: TA100, Metabolic Activation: NONE, Method: STANDARD PLATE) was “active; positive”, the mutagenic call (Test System: AMES SALMONELLA TYPHIMURIUM, Strain/Indicator: TA7001, Metabolic Activation: NONE, Method: PREINCUBATION) was “active; positive” and the mutagenic call (Test System: AMES SALMONELLA TYPHIMURIUM, Strain/Indicator: TA7002, Metabolic Activation: NONE, Method: PREINCUBATION) was “active; positive”. The mutagenic call (Test System: AMES SALMONELLA TYPHIMURIUM, Strain/Indicator: TA7003, Metabolic Activation: NONE, Method: PREINCUBATION) was “active; positive”, the mutagenic call (Test System: AMES SALMONELLA TYPHIMURIUM, Strain/Indicator: TA7004, Metabolic Activation: NONE, Method: PREINCUBATION) was “active; positive” and the mutagenic call (Test System: AMES SALMONELLA TYPHIMURIUM, Strain/Indicator: TA7005, Metabolic Activation: NONE, Method: PREINCUBATION) was “active; positive”. The mutagenic call (Test System: AMES SALMONELLA TYPHIMURIUM, Strain/Indicator: TA7006, Metabolic Activation: NONE, Method: PREINCUBATION) was “active; positive”, the mutagenic call (Test System: AMES SALMONELLA TYPHIMURIUM, Strain/Indicator: YG1021, Metabolic Activation: NONE, Method: STANDARD PLATE) was “active; positive” and the mutagenic call (Test System: AMES SALMONELLA TYPHIMURIUM, Strain/Indicator: YG1024, Metabolic Activation: NONE, Method: STANDARD PLATE) was “active; positive”. For the same compound, the mutagenic call (Test System: AMES SALMONELLA TYPHIMURIUM, Strain/Indicator: YG1026, Metabolic Activation: NONE, Method: STANDARD PLATE) was “active; positive” and the mutagenic call (Test System: AMES SALMONELLA TYPHIMURIUM, Strain/Indicator: YG1029, Metabolic Activation: NONE, Method: STANDARD PLATE) was “active; positive”.

COC(=O)C(N)Cc1ccc(Cl)cc1 (centres undefined) was tested, and the mutagenic call (Test System: AMES SALMONELLA TYPHIMURIUM, Strain/Indicator: TA98, Metabolic Activation: NONE) was “inactive; negative”, the mutagenic call (Test System: AMES SALMONELLA TYPHIMURIUM, Strain/Indicator: TA100, Metabolic Activation: NONE) was “inactive; negative” and the mutagenic call (Test System: AMES SALMONELLA TYPHIMURIUM, Strain/Indicator: TA1535, Metabolic Activation: NONE) was “inactive; negative”. The mutagenic call (Test System: AMES SALMONELLA TYPHIMURIUM, Strain/Indicator: TA1537, Metabolic Activation: NONE) was “inactive; negative”, the mutagenic call (Test System: E. COLI, Strain/Indicator: AB2462 UVRA, Metabolic Activation: NONE, Method: SPOT TEST) was “inactive; negative” and the mutagenic call (Test System: E. COLI, Strain/Indicator: WP6 POLA, Metabolic Activation: NONE, Method: SPOT TEST) was “inactive; negative”.
